# Source: PubChem BioAssay (NCI)
#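 A five-concentration, 48-hour dose response in 96-well plates underlies each endpoint, interpolated linearly between surrounding concentrations. GI50: concentration for 50% inhibition of growth. At the TGI there is no net growth.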
# How the values were obtained:
# Experiment in all cases: growth of human tumour cells (NCI), 48 h
# A498 renal = tested on: A498 renal
# HS 578T breast = tested on: HS 578T breast
# HT29 colon = tested on: HT29 colon
# MOLT-4 leukemia = tested on: MOLT-4 leukemia
# OVCAR-5 ovarian = tested on: OVCAR-5 ovarian
# PC-3 prostate = tested on: PC-3 prostate
# RPMI-8226 leukemia = tested on: RPMI-8226 leukemia
# SF-268 CNS = tested on: SF-268 CNS
# SK-MEL-5 melanoma = tested on: SK-MEL-5 melanoma
# UO-31 renal = tested on: UO-31 renal
SMILES,GI50 (A498 renal),TGI (A498 renal),GI50 (HS 578T breast),TGI (HS 578T breast),GI50 (HT29 colon),TGI (HT29 colon),GI50 (MOLT-4 leukemia),TGI (MOLT-4 leukemia),GI50 (OVCAR-5 ovarian),TGI (OVCAR-5 ovarian),GI50 (PC-3 prostate),TGI (PC-3 prostate),GI50 (RPMI-8226 leukemia),TGI (RPMI-8226 leukemia),GI50 (SF-268 CNS),TGI (SF-268 CNS),GI50 (SK-MEL-5 melanoma),TGI (SK-MEL-5 melanoma),GI50 (UO-31 renal),TGI (UO-31 renal)
O[C@H](CN1CC1)[C@@H](O)CN1CC1,5.24 µM,21.7 µM,20.4 µM,79.2 µM,10.2 µM,26.6 µM,0.86 µM,> 100 µM,11.2 µM,48 µM,15.1 µM,> 100 µM,6.74 µM,> 100 µM,2.6 µM,30.8 µM,13.1 µM,29.2 µM,2.65 µM,13.1 µM
Cc1cc(Cl)ccc1NC(=O)NC(C)(C)COC(=O)Nc1cccc(Cl)c1,2.82 µM,21.8 µM,5.65 µM,39 µM,7.42 µM,39.4 µM,6.19 µM,79 µM,8.1 µM,> 100 µM,3.66 µM,52.1 µM,3.26 µM,15.3 µM,13.5 µM,78 µM,6.7 µM,25 µM,7.11 µM,80.7 µM
COc1cccc2ccc3c(c12)C(=O)OC31CCc2c(C)cccc21 (stereo not drawn),–,22.7 µM,–,> 100 µM,–,> 31.6 µM,–,33.7 µM,–,> 46.4 µM,–,> 100 µM,–,21.5 µM,–,> 46.4 µM,–,19.5 µM,–,26.3 µM
C=C1C[C@@H]2[C@H](CC[C@]3(C)C(=O)CC[C@@H]23)[C@@]2(C)C=CC(=O)C=C12,> 50.8 µM,> 90.3 µM,25.1 µM,> 77.2 µM,37.1 µM,> 100 µM,25.7 µM,> 92.6 µM,37.3 µM,> 100 µM,66.9 µM,> 100 µM,19.7 µM,> 56.6 µM,57.1 µM,> 100 µM,7.5 µM,33.7 µM,22 µM,> 56.5 µM
N#CC1CCc2c(c(-c3cn[nH]c3C(F)(F)F)nc3c(F)cc4[nH]ncc4c23)C1 (stereo not drawn),2.09 µM,6.75 µM,3.16 µM,11.5 µM,9.6 µM,> 100 µM,3.49 µM,42.7 µM,13.7 µM,57.7 µM,9.19 µM,> 100 µM,8.4 µM,78.1 µM,5.02 µM,27.4 µM,2.83 µM,9.79 µM,9.64 µM,36.6 µM
S=c1[nH]nc(SCc2ccccc2Cl)c2[nH]cnc12,–,> 100 µM,–,> 100 µM,–,> 100 µM,–,> 100 µM,–,> 100 µM,–,> 100 µM,–,> 100 µM,–,> 100 µM,–,> 100 µM,–,> 100 µM
CCCNc1cccc(-n2ncc3c(N/N=C/c4ccncc4)ncnc32)c1,1.12 µM,> 25 µM,1.1 µM,> 25 µM,14.9 µM,> 25 µM,> 25 µM,> 25 µM,> 25 µM,> 25 µM,> 25 µM,> 25 µM,> 25 µM,> 25 µM,8.24 µM,> 25 µM,1.64 µM,> 25 µM,–,–
